Measured values: ChEMBL document CHEMBL5523736, “The First Discovery of Marine Polyoxygenated Cembranolides as Potential Agents for the Treatment of Ulcerative Colitis” (J Med Chem, 2024)
Active and inactive are the calls of the source. The calls are words filed in the database; no cut-off is given here.

Legend:
[1] = Cytotoxicity against mouse RAW264.7 cells assessed as cell viability at 20 uM incubated for 24 hrs by CCK8 assay relative to control; assay type: toxicity, cell-based; conditions: read-out: Activity
[2] = test system: RAW264.7; experiment: Antiinflammatory activity in LPS-induced mouse RAW264.7 cells assessed as reduction in IL-6 mRNA expression level at 20 uM by qRT-PCR analysis; assay type: functional, cell-based
[3] = test system: RAW264.7; experiment: Antiinflammatory activity in mouse RAW264.7 cells assessed as inhibition of LPS-induced NO production at 20 uM incubated for 24 hrs relative to control; assay type: functional
[4] = test system: RAW264.7; experiment: Antiinflammatory activity in LPS-induced mouse RAW264.7 cells assessed as reduction in TNF-alpha mRNA expression level at 20 uM by qRT-PCR analysis; assay type: functional, cell-based
[5] = test system: RAW264.7; experiment: Antiinflammatory activity in LPS-induced mouse RAW264.7 cells assessed as reduction in IL-1beta mRNA expression level at 20 uM by qRT-PCR analysis; assay type: functional, cell-based
[6] = test system: RAW264.7; experiment: Antiinflammatory activity in LPS-induced mouse RAW264.7 cells assessed as reduction in iNOS mRNA expression level at 20 uM by qRT-PCR analysis; assay type: functional, cell-based
[7] = test system: RAW264.7; experiment: Antiinflammatory activity in mouse RAW264.7 cells assessed as inhibition of LPS-induced NO production incubated for 24 hrs; assay type: functional, cell-based; conditions: RAW264.7, 24 h

SMILES	viability at 24 h, 20 µM [1] [%]	Activity [2]	inhibition at 20 µM [3] [%]	Activity [4]	Activity [5]	Activity [6]	IC50 [7] [µM]
C=C1C(=O)O[C@]2(C)CC[C@@H]1C[C@@H]1O[C@@]1(C)CC/C=C(\C)CC[C@@H]2O [SINULARIOLIDE]	83.3	Active	108	Active	Active	Active	3.61
C=C1C(=O)O[C@]2(C)CC[C@@H]1C[C@H](O)[C@@]1(C)CC[C@H](O1)[C@](C)(O)CC[C@H]2OC(C)=O [QUERCIFORMOLIDE B]	103		16.3				
C=C(C(=O)OC)[C@@H]1C/C=C(/C)[C@@H](O)CC/C(C)=C/CC[C@]2(C)O[C@H]2C1	93.7		79.3				
C=C1C(=O)O[C@]2(C)CC[C@@H]1C/C=C(\C)CC/C=C(\C)CC[C@@H]2O	93.7		93.1				12.7
C=C1C(=O)O[C@]2(C)CC[C@@H]1C[C@H](OC(C)=O)[C@@]1(C)CC[C@H](O1)C(=C)CC[C@H]2OC(C)=O [GRANOSOLIDE B]	102		56				
C=C1C(=O)O[C@]2(C)CC[C@@H]1C[C@@H]1O[C@@]1(C)CC/C=C(\C)CC[C@H]2O	92.8		86.7				13.1
C=C(C(=O)OC)[C@@H]1CC[C@@]2(C)O[C@@H]2CC[C@](C)(O)/C=C/C[C@]2(C)O[C@H]2C1	108		31.1				
C=C(C(=O)OC)[C@@H]1CC[C@@](C)(O)[C@@H]2CC[C@@](C)(O2)[C@@H](OC(C)=O)CC[C@]2(C)O[C@H]2C1 [DENDRONPHOLIDE G]	83		-49				
C=C1CO[C@]2(C)CC[C@@H]1C[C@]1(O)O[C@@]1(C)CC/C=C(\C)CC[C@@H]2O	82.3		-146				
C=C1C(=O)O[C@]2(C)CC[C@@H]1C[C@@H]1O[C@@]1(C)C/C=C/[C@@](C)(O)CC[C@H]2OC(C)=O	87.9		99.5				10.1
C=C(C(=O)OC)[C@@H]1CC[C@@](C)(O)C(=O)CC[C@](C)(O)/C=C/C[C@]2(C)O[C@H]2C1	98.1		29.1				
C=C(C(=O)OC)[C@@H]1CC[C@]2(C)O[C@H]2CC[C@](C)(OO)/C=C/C[C@]2(C)O[C@@H]2C1	87.4		35.4				
C=C1C(=O)O[C@]2(C)CC[C@@H]1C[C@H](OC(C)=O)[C@@]1(C)CC[C@H](O1)[C@](C)(O)CC[C@H]2O	109		25.8				
C=C1C(=O)O[C@]2(C)CC[C@@H]1C[C@@H]1O[C@@]1(C)CC[C@H](OC(C)=O)[C@@]1(C)CC[C@@H]2O1	103		36.7				
C=C1C(=O)O[C@]2(C)CC[C@@H]1C[C@@H]1O[C@@]1(C)C/C=C/[C@@](C)(OO)CCC2=O	93.7		48.7				
CNC(=N)NCCC[C@H](N)C(=O)O [TILARGININE]	92.7		27.4				31.7
C=C1C(=O)O[C@]2(C)CC[C@@H]1C[C@@H]1O[C@@]1(C)CC[C@@H]1O[C@]1(C)CC[C@H]2OC(C)=O	92.7	Active	141	Active	Active	Active	1.59
C=C1C(=O)O[C@]2(C)CC[C@@H]1C[C@H](O)[C@@]1(C)CC[C@H](O1)[C@](C)(O)CCC2=O	102		43				
C=C(C(=O)OC)[C@@H]1CC[C@@](C)(O)[C@@H](OC(C)=O)CC/C(C)=C/CC[C@]2(C)O[C@H]2C1	104		-4.67				
C=C1C(=O)O[C@]2(C)CC[C@@H]1C[C@H](O)[C@@]1(C)CC[C@H](O1)C(=C)CCC2=O	89.5		34				
C=C1C(=O)O[C@]2(C)CC[C@@H]1C[C@@H]1O[C@@]1(C)CC[C@H](O)[C@](C)(O)CCC2=O	89	Active	90	Active	Active	Active	1.98
C=C1C(=O)O[C@]2(C)CC[C@@H]1C[C@H](O)[C@@]1(C)CC[C@H](OC(C)=O)[C@@](C)(CCC2=O)O1 [QUERCIFORMOLIDE A]	94.1		85.1				9.48
C=C1C(=O)O[C@]2(C)CC[C@@H]1C[C@H](O)[C@@]1(C)CC[C@H](O1)C(=C)CC[C@H]2OC(C)=O [GRANOSOLIDE A]	88.7		31				
C=C1C(=O)O[C@]2(C)CC[C@@H]1C[C@H](O)[C@@]1(C)CC/C=C(/CCC2=O)COO1	94.5		34.4				
C=C(C(=O)OC)[C@@H]1CC[C@]2(C)O[C@@]2(O)CC/C(C)=C/CC[C@]2(C)O[C@@H]2C1	94		0				
C=C(C(=O)OC)[C@@H]1CC[C@@](C)(O)C(=O)CC/C(C)=C/CC[C@]2(C)O[C@H]2C1	116		35.7				
C=C1C(=O)O[C@]2(C)CC[C@@H]1C[C@H]1O[C@@]1(C)C/C=C/[C@](C)(OO)CC[C@H]2O	108	Active	124	Active	Active	Active	0.84
C=C(C(=O)OC)[C@@H]1CC[C@@](C)(O)[C@@H](OC(C)=O)CC/C(C)=C/C/C=C(\C)[C@H](O)C1	89.2		55.7				
C=C1C(=O)O[C@]2(C)CC[C@@H]1C[C@H](O)[C@@]1(C)CC[C@H](O1)C(=C)CC[C@H]2O	89		39				
